One assay deals with sorted hepatic NKT cells. As to the kind of experiment: Ex vivo stimulatory capacity of in vivo α-GalCer-loaded DC subsets on NKT cells. The conditions noted are these: DCs sorted 2 h after i.v. α-GalCer 2 μg; 48 h co-culture. Format: cell-based, mouse. The method, then: (§1) FIG. 2: CD8α^+ and CD8α^− DCs differ in their ability to activate iNKT cells. A, B and C, Mice were intravenously injected with α-GalCer (2 μg). Two hours later, splenic CD8α^+ and CD8α^− DCs were sorted on the basis of CD11c, CD11b and CD8 expression (A) and co-cultured with sorted NKT cells (B) or with the α-GalCer-responsive IL-2-producing iNKT cell hybridoma DN32.D3 as a readout of Ag presentation (C). B and C, Cytokine production was quantified by ELISA. Results represent the mean±SD of four experiments. D, CD1d expression on CD8α^+ and CD8α^− DCs was assessed by flow cytometry. The staining with the isotype control was identical on both DC subsets. […] E, Recipient mice were intravenously injected with Cy5-conjugated, or unconjugated as a control, α-GalCer (20 μg) and Cy5 incorporation by CD8α^+ DCs (grey) and CD8α^− DCs (black) was analyzed by flow cytometry 2 h later. […]
(§2) To assess the capacity of DCs to bind/uptake PLGA-based NPs, bone marrow-derived DCs (BM-DCs) (5×10^5 cells/well)^32 or spleen mononuclear cells (MNCs) (1×10^6 cells/well) were exposed with AlexaFluor647-labelled particles (10 μg/ml and 100 μg/ml, respectively) during 2 h at 37° C. After extensive washes, BM-DC (CD11c^+ DEC205^+/−) and spleen CD8α^+ and CD8α^− DCs were analysed by flow cytometry. […] Production of IFN-γ, IL-4 and IL-2 was measured in the culture supernatants by ELISA (R&D systems).

The subject of assay [1] is iNKT cell hybridoma DN32.D3. As to the kind of experiment: Ex vivo stimulatory capacity of in vivo α-GalCer-loaded DC subsets on DN32.D3. Format: cell-based, mouse. The conditions noted are these: DCs sorted 2 h after i.v. α-GalCer 2 μg; 24 h co-culture. As for the experimental part: as §1, §2
The test system of assay [2] is splenic iNKT cells. As to the kind of experiment: iNKT cell recall response / anergy in vivo. Further details: species or system mouse. The method, then: (§3) FIG. 1: DCs are crucial for iNKT cell primo-activation and for the prevention of iNKT cell anergy. (A) Transgenic CD11c.DTR mice were injected with PBS or DT 24 h before α-GalCer inoculation (100 ng/mouse). (B) Spleen DCs were sorted on the basis of CD11c expression and sensitized for 2 h with α-GalCer (25 ng/ml). Mice were then injected with α-GalCer-sensitized DCs or free α-GalCer (100 ng/mouse). A and B, Mice were euthanized 3 h after α-GalCer (A and B) or DC/α-GalCer (B) inoculation (primo-activation, grey) or received a second intravenous injection of α-GalCer (100 ng/mouse) 7 days later (recall response, black). In these later groups, animals were sacrificed 3 h after α-GalCer challenge. Splenic iNKT cells were then analysed for intracellular IFN-γ production. A representative experiment out of two (A) or three (B) is shown (mean±SD) (n=4). ** p<0.01, * p<0.05 (unpaired Student's t test).
FIG. 5: Targeting α-GalCer into CD8α^+ DCs prevents iNKT cell anergy in vivo. Mice were intravenously injected with PBS, free α-GalCer (100 ng/mouse) or α-GalCer encapsulated into NP/DEC205 or NP/IgG (5 ng/mouse). A, After 3 h, mice were bled and splenic iNKT cells were screened for intracellular IFN-γ production. The average percentages±SD of iNKT cells positive for IFN-γ are represented (left panel). Production of IL-4 in the sera was quantified by ELISA (right panel). B, Mice received, 7 days later, a second injection of free α-GalCer ([…]) and spleen iNKT cells were screened for intracellular IFN-γ production 3 h later. […] A representative experiment out of two is shown (mean±SD) (n=3) C, The percentage±SD of iNKT cells expressing PD-1 is represented (7 days after α-GalCer stimulation). A representative experiment out of two is shown (n=4). ** p<0.01, * p<0.05 (unpaired Student's t test).
Mice were administrated intravenously with 200 μl of PBS containing 5 ng of free (or 100 ng as a control) or encapsulated α-GalCer. […] Splenic iNKT cells were analysed for intracellular IFN-γ expression and IFN-γ and IL-4 concentrations in the sera were determined by ELISA.

Assay [3] relates to splenic iNKT cells. As to the kind of experiment: Primary iNKT cell activation in vivo (intracellular IFN-γ, serum IL-4). Further details: species or system mouse. The method, then:
as §3
FIG. 4: Encapsulation of α-GalCer in NP/DEC205 efficiently activates iNKT cells in vivo. Mice were intravenously injected with PBS alone or α-GalCer either in a free soluble form or encapsulated into NP/DEC205 or NP/IgG (5 ng α-GalCer/mouse). […] Production of IL-4 in the sera was quantified by ELISA (right panel) (n=3-8). […] The expression of CD86 (expressed as MFI) by DCs (CD11c^hi) is depicted. […]
FIG. 5: Targeting α-GalCer into CD8α^+ DCs prevents iNKT cell anergy in vivo. […] Production of IL-4 in the sera was quantified by ELISA (right panel). […]
Cells were resuspended in the appropriate combination of Abs to allow identification of DC subsets (anti-CD11c, anti-CD8α, anti-CD11b), iNKT cells (anti-TCRβ, PBS-57-loaded CD1d tetramer), NK cells (anti-CD3ε, anti-NK1.1) or γδ T lymphocytes (anti-TCRγδ, anti-CD3ε). […] Expression of intracellular IFN-γ was analysed as previously described.^32 To measure Cy5-α-GalCer incorporation by splenic DC subsets, mice were intravenously injected with Cy5-conjugated α-GalCer (20 μg) and 2 h later, incorporation of Cy5 by spleen DC subsets was analysed by flow cytometry. […]

For the molecule `CCCCCCCCCCCCCCCCCCCCCCCCCC(=O)N[C@@H](CO[C@H]1O[C@H](CO)[C@H](O)[C@H](O)[C@H]1O)[C@H](O)[C@H](O)CCCCCCCCCCCCCC` [α-GalCer, (2S,3S,4R)-1-O-(alpha-D-galactosyl)-N-hexacosanoyl-2-amino-1,3,4-octadecanetriol], in the assay on sorted hepatic NKT cells, the “Secretion of IFN-γ and IL-4 by NKT cells co-cultured with DC subsets” value was “CD8α^+ DCs promoted a much stronger secretion of IFN-γ and IL-4”. The “IL-2 production by DN32.D3 co-cultured with DC subsets” value in assay [1] is on record as “CD8α^+ DCs triggered a higher IL-2 production by the iNKT cell hybridoma DN32.D3”. Also, the “PD-1 expression on iNKT cells” value with splenic iNKT cells [2] (7 days after α-GalCer stimulation, listed as free α-GalCer) was “induced enhanced PD-1 expression on iNKT cells”. Besides, the “Recall response when DCs lacking at primary stimulation” value in the assay on splenic iNKT cells [2] (CD11c.DTR mice treated with DT, α-GalCer 100 ng/mouse, rechallenge day 7) was “totally blunted”. In the assay with splenic iNKT cells [2] (second injection of free α-GalCer 100 ng 7 days later, 3 h), the “iNKT cell anergy (IFN-γ recall response)” value is recorded as “induced the expected iNKT cell anergy”. Also, in the assay with splenic iNKT cells [3] (CD11c.DTR mice, DT 24 h before, α-GalCer 100 ng/mouse), the “Primary iNKT cell activation after DC depletion” value is “strongly lowered the extent of primary iNKT cell activation”. Further, in the assay with splenic iNKT cells [3] (NP/DEC205 5 ng/mouse, free α-GalCer 100 ng/mouse, 3 h), the “Primary iNKT cell activation, low dose in NP/DEC205 vs high dose free” value is “comparable primary iNKT cell activation”. For the same molecule, the “Primary iNKT cell activation, free α-GalCer vs α-GalCer-sensitized DCs” value with splenic iNKT cells [3] (free 100 ng/mouse, DCs sensitized 2 h with 25 ng/ml, 3 h) is on record as “triggered a similar primary activation of iNKT cells”.
